Measured values as given in patent publication US12479847B2 (DANA-FARBER CANCER INSTITUTE, INC., priority 2019, dated 2025).

Columns and labels:
Test in all cases: KINOMEscan (ScanMAX) kinase profiling
Format in all cases: binding
panel of 468 kinases [1] = molecular target: T1, panel of 468 kinases (Homo sapiens, UniProt Q9H2K8); details: TAOK3; 1 μM; read-out: % control
T1 construct: purchased KINOMEscan (ScanMAX) service
T1 sequence (Q9H2K8 1-898): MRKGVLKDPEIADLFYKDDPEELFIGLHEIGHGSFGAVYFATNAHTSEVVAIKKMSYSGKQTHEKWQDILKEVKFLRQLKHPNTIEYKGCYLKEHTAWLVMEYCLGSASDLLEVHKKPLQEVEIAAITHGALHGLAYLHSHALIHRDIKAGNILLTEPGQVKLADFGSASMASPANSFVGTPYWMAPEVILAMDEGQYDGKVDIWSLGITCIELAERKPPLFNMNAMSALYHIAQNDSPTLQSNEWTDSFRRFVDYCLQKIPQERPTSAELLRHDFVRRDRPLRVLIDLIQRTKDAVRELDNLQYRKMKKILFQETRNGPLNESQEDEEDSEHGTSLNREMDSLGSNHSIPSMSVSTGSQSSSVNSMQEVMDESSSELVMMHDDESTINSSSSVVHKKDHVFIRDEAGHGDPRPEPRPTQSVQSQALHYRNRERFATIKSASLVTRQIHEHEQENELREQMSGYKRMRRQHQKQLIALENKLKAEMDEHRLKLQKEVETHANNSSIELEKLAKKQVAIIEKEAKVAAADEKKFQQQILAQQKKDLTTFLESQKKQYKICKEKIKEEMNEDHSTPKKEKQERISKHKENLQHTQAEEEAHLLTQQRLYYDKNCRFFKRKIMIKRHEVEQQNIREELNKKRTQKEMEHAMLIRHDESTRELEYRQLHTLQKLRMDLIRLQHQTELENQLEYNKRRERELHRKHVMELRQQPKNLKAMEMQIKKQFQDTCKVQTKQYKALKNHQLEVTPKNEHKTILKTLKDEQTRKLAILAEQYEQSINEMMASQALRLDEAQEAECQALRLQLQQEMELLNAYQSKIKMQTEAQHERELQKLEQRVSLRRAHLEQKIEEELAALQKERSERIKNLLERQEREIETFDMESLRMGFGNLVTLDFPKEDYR

panel of 468 kinases [2] = molecular target: T2, panel of 468 kinases (Homo sapiens, UniProt P16234); details: PDGFRA; 1 μM; read-out: % control
T2 construct: purchased KINOMEscan (ScanMAX) service
T2 sequence (P16234 24-1089): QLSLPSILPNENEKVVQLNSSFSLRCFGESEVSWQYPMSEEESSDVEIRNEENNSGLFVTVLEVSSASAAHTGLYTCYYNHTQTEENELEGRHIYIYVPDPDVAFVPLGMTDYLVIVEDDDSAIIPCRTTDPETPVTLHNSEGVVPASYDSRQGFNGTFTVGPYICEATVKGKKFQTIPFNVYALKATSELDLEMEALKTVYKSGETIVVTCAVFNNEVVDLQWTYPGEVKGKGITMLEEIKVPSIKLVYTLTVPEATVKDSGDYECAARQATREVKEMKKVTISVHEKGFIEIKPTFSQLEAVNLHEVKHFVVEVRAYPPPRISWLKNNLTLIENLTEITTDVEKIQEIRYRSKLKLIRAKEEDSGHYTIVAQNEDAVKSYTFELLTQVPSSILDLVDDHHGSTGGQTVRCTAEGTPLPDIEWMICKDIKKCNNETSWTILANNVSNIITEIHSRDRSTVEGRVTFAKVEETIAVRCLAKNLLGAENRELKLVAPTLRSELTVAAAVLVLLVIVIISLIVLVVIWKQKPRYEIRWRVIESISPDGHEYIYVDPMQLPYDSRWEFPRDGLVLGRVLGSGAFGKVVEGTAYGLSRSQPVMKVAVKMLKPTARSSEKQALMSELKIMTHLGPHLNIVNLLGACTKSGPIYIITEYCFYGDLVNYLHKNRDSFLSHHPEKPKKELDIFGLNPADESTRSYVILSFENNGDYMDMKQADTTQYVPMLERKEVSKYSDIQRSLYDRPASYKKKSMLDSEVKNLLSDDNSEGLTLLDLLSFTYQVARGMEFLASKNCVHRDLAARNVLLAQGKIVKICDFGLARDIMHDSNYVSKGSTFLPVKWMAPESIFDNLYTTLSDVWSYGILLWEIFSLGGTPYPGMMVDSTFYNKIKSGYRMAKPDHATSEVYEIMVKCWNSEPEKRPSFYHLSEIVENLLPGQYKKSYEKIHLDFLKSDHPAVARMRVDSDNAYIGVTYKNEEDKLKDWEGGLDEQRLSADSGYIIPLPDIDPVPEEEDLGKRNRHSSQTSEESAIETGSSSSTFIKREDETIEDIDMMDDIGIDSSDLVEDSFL

panel of 468 kinases [3] = molecular target: T3, panel of 468 kinases (Homo sapiens, UniProt Q9Y2K2); details: QSK; 1 μM; read-out: % control
T3 construct: purchased KINOMEscan (ScanMAX) service

panel of 468 kinases [4] = molecular target: T4, panel of 468 kinases (Homo sapiens, UniProt Q00532); details: CDKL1; 1 μM; read-out: % control
T4 construct: purchased KINOMEscan (ScanMAX) service
T4 sequence (Q00532 whole entry): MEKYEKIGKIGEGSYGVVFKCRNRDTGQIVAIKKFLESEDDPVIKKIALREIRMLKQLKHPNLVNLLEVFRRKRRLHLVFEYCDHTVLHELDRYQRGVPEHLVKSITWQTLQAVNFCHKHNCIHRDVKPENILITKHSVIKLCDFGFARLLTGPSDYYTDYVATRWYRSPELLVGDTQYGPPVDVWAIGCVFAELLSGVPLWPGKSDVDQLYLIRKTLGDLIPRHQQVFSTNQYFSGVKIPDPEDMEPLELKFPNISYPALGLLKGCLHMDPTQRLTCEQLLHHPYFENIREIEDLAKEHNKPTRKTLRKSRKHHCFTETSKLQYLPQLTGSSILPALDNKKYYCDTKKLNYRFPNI

panel of 468 kinases [5] = molecular target: T5, panel of 468 kinases (Homo sapiens, UniProt Q9Y6R4); details: MAP3K4; 1 μM; read-out: % control
T5 construct: purchased KINOMEscan (ScanMAX) service

panel of 468 kinases [6] = molecular target: T6, panel of 468 kinases (Homo sapiens, UniProt P11309); details: PIM1; 1 μM; read-out: % control
T6 construct: purchased KINOMEscan (ScanMAX) service
T6 sequence (P11309 whole entry): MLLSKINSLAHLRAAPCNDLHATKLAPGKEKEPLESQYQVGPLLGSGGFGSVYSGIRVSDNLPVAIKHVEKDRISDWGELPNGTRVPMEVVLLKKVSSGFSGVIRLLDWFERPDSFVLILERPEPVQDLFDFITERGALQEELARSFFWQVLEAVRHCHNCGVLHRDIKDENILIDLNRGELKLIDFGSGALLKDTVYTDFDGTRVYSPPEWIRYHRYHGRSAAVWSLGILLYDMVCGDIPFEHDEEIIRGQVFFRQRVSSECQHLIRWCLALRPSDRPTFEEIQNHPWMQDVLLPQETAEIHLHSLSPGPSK

panel of 468 kinases [7] = molecular target: T7, panel of 468 kinases (Homo sapiens, UniProt P04629); details: TRKA; 1 μM; read-out: % control
T7 construct: purchased KINOMEscan (ScanMAX) service

panel of 468 kinases [8] = molecular target: T8, panel of 468 kinases (Homo sapiens, UniProt P08581, Y1235D); details: MET(Y1235D); 1 μM; read-out: % control
T8 construct: purchased KINOMEscan (ScanMAX) service
T8 sequence (P08581 25-1390 Y1235D): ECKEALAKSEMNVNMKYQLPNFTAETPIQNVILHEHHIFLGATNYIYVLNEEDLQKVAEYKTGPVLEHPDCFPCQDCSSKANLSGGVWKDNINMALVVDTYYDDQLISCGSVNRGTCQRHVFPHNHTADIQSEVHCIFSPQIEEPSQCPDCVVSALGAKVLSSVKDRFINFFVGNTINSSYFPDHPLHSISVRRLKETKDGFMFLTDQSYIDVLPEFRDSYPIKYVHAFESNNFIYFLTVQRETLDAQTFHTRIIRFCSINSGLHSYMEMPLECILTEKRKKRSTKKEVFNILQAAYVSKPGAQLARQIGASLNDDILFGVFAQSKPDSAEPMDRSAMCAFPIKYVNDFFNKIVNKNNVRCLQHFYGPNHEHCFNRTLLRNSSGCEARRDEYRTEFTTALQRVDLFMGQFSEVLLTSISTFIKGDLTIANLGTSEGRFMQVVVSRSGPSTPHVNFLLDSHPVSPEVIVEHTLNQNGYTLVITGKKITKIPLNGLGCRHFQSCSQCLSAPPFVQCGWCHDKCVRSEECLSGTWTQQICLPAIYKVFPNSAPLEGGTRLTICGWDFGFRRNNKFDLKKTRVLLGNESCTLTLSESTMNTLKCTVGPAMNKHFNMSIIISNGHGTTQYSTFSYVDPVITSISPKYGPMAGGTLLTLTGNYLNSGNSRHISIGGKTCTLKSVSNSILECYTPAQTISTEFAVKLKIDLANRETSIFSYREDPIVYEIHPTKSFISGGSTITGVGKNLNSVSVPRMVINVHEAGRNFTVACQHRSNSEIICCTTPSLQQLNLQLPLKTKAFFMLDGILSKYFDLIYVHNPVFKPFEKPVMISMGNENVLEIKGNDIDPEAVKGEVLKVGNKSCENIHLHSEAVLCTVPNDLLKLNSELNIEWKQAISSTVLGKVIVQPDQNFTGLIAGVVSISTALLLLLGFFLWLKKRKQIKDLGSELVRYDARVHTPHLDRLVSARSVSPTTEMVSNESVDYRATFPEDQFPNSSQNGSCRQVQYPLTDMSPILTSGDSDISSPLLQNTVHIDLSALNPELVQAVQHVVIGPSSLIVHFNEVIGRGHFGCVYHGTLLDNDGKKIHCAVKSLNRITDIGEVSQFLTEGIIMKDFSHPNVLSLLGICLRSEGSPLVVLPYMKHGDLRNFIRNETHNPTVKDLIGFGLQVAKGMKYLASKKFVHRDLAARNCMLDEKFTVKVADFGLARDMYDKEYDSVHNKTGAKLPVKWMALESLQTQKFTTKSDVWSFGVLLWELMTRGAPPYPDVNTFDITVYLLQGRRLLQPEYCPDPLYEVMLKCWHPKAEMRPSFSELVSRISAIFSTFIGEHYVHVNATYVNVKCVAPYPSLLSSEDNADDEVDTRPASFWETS

panel of 468 kinases [9] = molecular target: T9, panel of 468 kinases (Homo sapiens, UniProt P41240); details: CSK; 1 μM; read-out: % control
T9 construct: purchased KINOMEscan (ScanMAX) service
T9 sequence (P41240 whole entry): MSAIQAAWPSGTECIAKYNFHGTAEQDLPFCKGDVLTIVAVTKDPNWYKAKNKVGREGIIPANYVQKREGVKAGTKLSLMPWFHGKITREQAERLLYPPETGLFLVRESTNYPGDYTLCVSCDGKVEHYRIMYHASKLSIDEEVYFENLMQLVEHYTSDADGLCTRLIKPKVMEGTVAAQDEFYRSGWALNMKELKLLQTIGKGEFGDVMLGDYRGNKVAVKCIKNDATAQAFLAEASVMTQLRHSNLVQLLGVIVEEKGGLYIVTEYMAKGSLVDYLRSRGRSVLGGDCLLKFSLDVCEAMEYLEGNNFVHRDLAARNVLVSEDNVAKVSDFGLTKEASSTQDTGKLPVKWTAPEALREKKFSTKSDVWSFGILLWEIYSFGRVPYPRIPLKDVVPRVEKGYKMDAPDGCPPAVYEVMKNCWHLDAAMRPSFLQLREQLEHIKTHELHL

panel of 468 kinases [10] = molecular target: T10, panel of 468 kinases (Homo sapiens, UniProt P48730); details: CSNK1D; 1 μM; read-out: % control
T10 construct: purchased KINOMEscan (ScanMAX) service
T10 sequence (P48730 whole entry): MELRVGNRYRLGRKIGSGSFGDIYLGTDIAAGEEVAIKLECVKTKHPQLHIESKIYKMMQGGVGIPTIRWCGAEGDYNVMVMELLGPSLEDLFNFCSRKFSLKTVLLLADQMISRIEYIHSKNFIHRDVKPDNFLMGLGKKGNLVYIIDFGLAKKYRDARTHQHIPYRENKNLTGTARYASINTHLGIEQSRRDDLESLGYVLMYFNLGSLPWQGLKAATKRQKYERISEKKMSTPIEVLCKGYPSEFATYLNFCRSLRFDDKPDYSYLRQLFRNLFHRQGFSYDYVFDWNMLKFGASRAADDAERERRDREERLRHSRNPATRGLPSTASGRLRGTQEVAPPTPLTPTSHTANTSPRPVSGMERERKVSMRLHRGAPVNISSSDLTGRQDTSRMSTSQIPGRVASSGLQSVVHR

panel of 468 kinases [11] = molecular target: T11, panel of 468 kinases (Homo sapiens, UniProt P16591); details: FER; 1 μM; read-out: % control
T11 construct: purchased KINOMEscan (ScanMAX) service
T11 sequence (P16591 whole entry): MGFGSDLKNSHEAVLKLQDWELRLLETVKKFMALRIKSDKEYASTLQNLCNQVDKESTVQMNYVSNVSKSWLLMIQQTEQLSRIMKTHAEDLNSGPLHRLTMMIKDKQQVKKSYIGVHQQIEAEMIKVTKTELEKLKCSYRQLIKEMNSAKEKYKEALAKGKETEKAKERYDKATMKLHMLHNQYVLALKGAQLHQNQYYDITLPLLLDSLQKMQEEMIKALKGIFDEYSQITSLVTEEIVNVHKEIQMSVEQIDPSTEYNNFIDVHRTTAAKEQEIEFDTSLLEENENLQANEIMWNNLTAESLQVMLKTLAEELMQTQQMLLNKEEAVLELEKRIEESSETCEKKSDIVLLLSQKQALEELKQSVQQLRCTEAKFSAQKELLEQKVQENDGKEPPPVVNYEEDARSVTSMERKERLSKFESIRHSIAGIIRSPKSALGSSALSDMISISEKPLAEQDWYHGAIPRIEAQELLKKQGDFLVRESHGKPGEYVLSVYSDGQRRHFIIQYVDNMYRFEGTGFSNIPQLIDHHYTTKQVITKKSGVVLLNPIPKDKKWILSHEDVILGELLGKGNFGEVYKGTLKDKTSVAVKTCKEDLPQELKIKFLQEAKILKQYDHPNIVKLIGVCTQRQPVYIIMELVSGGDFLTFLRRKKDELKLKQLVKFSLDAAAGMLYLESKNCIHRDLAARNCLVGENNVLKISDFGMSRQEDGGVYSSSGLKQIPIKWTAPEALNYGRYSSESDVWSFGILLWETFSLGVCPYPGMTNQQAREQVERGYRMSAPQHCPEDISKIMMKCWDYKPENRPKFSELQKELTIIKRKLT

panel of 468 kinases [12] = molecular target: T12, panel of 468 kinases (Homo sapiens, UniProt Q05397); details: FAK; 1 μM; read-out: % control
T12 construct: purchased KINOMEscan (ScanMAX) service

panel of 468 kinases [13] = molecular target: T13, panel of 468 kinases (Homo sapiens, UniProt Q9Y243); details: AKT3; 1 μM; read-out: % control
T13 construct: purchased KINOMEscan (ScanMAX) service

Row | Structure (SMILES) | remaining binding at 1 µM (panel of 468 kinases [1]) [%] | remaining binding at 1 µM (panel of 468 kinases [2]) [%] | remaining binding at 1 µM (panel of 468 kinases [3]) [%] | remaining binding at 1 µM (panel of 468 kinases [4]) [%] | remaining binding at 1 µM (panel of 468 kinases [5]) [%] | remaining binding at 1 µM (panel of 468 kinases [6]) [%] | remaining binding at 1 µM (panel of 468 kinases [7]) [%] | remaining binding at 1 µM (panel of 468 kinases [8]) [%] | remaining binding at 1 µM (panel of 468 kinases [9]) [%] | remaining binding at 1 µM (panel of 468 kinases [10]) [%] | remaining binding at 1 µM (panel of 468 kinases [11]) [%] | remaining binding at 1 µM (panel of 468 kinases [12]) [%] | remaining binding at 1 µM (panel of 468 kinases [13]) [%]
1 | CNc1nc(Nc2ccc(S(=O)(=O)N3CCC(N4CCOCC4)CC3)cc2OC)nc2[nH]cc(Cl)c12 [Compound 12, 5-chloro-N2-(2-methoxy-4-((4-morpholinopiperidin-1-yl)sulfonyl)phenyl)-N4-methyl-7H-pyrrolo[2,3-d]pyrimidine-2,4-diamine] | 85 | 77 | 100 | 85 | 100 | 100 | 100 | 100 | 100 | 9.5 | 44 | 19 | 100
2 | CNc1nc(Nc2ccc(C(=O)N3CCC(N4CCOCC4)CC3)c3c2OCO3)nc2[nH]cc(Cl)c12 [Compound 75, (7-((5-chloro-4-(methylamino)-7H-pyrrolo[2,3-d]pyrimidin-2-yl)amino)benzo[d][1,3]dioxol-4-yl)(4-morpholinopiperidin-1-yl)methanone] | 83 | 67 | 100 | 95 | 100 | 99 | 70 | 100 | 100 | 15 | 56 | 39 | 100
3 | CNc1nc(Nc2ccc(P3(=O)CCN(C4CCOCC4)CC3)cc2OC)nc2[nH]cc(Cl)c12 [Compound 77, 4-(4-((5-chloro-4-(methylamino)-7H-pyrrolo[2,3-d]pyrimidin-2-yl)amino)-3-methoxyphenyl)-1-(tetrahydro-2H-pyran-4-yl)-1,4-azaphosphinane 4-oxide] | 84 | 69 | 100 | 87 | 100 | 100 | 100 | 100 | 100 | 8.9 | 20 | 33 | 100
